Patent US9757353B2, “Methods of inducing anesthesia” (THE REGENTS OF THE UNIVERSITY OF CALIFORNIA, priority 2012, dated 2017)

Columns and labels:
[1] = biological target: T1, NMDA (NR1/NR2A) receptors (Rattus norvegicus, UniProt P35439+Q00959); assay: Oocyte two-electrode voltage clamp, NMDA receptor currents; assay type: cell-based; conditions: for NMDA % Direct Effect: drug response without receptor agonist, percent of control agonist peak, saturated drug, mean ± SEM, 5-6 oocytes; for NMDA Drug Response: saturated drug + agonist; for direct effect on NMDA receptors (in words): absence of glutamate and glycine agonist
T1 construct: expressed in transfected cells; host or cells: Xenopus laevis oocytes, injected with in vitro transcribed RNA (1:1), clones a gift from Dr. R. A. Harris
T1 sequence (Q00959 23-1464, other chains not shown): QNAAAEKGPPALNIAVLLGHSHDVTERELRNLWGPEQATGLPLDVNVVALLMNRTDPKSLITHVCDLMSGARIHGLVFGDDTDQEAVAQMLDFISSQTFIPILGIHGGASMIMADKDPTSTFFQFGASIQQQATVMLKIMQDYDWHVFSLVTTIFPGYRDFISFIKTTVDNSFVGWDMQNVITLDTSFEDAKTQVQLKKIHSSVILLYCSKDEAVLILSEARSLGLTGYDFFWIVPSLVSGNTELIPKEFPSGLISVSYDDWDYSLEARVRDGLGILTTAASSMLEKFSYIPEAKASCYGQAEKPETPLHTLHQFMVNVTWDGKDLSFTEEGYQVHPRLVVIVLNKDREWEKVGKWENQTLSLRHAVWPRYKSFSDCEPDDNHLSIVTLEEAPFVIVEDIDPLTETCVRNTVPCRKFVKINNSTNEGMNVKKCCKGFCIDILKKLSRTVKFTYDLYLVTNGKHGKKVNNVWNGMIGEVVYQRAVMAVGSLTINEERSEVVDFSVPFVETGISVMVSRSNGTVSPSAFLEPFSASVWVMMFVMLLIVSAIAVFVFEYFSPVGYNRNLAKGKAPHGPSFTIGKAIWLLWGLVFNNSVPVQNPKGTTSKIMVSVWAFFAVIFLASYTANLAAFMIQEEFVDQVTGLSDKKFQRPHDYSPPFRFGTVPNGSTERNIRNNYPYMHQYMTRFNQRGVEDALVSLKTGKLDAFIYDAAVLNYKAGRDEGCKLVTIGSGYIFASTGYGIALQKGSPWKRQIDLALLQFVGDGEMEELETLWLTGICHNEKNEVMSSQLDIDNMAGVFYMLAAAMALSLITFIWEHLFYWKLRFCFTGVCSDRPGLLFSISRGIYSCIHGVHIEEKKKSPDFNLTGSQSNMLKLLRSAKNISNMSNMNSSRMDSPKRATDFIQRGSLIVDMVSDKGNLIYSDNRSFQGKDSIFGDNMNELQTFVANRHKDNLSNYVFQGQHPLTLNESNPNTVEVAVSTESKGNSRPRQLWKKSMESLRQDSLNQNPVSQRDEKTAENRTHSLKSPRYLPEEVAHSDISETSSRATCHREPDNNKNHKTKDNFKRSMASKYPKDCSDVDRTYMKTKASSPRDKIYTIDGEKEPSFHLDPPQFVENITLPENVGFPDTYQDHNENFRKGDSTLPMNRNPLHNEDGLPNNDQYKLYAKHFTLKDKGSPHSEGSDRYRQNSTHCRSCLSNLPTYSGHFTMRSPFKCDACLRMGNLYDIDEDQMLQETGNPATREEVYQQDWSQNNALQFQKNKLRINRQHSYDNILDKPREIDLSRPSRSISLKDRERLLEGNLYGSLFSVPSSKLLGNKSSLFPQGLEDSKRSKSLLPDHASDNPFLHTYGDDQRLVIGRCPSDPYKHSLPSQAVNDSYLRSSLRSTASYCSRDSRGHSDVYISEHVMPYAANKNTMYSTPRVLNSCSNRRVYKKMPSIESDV
Text: Methods: GABAA (α1β2γ2s) or NMDA (NR1/NR2A) receptors were expressed in oocytes and studied using standard two-electrode voltage clamp techniques. Hydrocarbons from 14 different organic functional groups were studied at saturated concentrations, and compounds within each group differed only by the carbon number at the ω-position or within a saturated ring. An effect on GABAA or NMDA receptors was defined as a 10% or greater reversible current change from baseline that was statistically different from zero.
Oocyte Collection and Receptor Expression. An ovary from tricaine-anesthetized Xenopus laevis frogs was surgically removed using a protocol approved by the Institutional Animal Care and Use Committee at the University of California, Davis. Following manual disruption of the ovarian lobule septae, the ovary was incubated in 0.2% Type I collagenase (Worthington Biochemical, Lakewood, N.J.) to defolliculate oocytes which were washed and stored in fresh and filtered modified Barth's solution composed of 88 mM NaCl, 1 mM KCl, 2.4 mM NaHCO3, 20 mM HEPES, 0.82 mM MgSO4, 0.33 mM Ca(NO3)2, 0.41 mM CaCl2, 5 mM sodium pyruvate, gentamycin, penicillin, streptomycin, and corrected to pH=7.4. All salts and antibiotics were A.C.S. grade (Fisher Scientific, Pittsburgh, Pa.).
Clones used were provided as a gift from Dr. R. A. Harris (University of Texas, Austin) and were sequenced and compared to references in the National Center for Biotechnology Information database to confirm the identity of each gene. GABAA receptors were expressed using clones for the human GABAA α1 and the rat GABAA β2 and γ2s subunits in pCIS-II vectors. […] In separate oocytes, glutamate receptors were expressed using rat NMDA NR1 clones in a pCDNA3 vector and rat NMDA NR2A clones in a Bluescript vector. RNA encoding each subunit was prepared using a commercial transcription kit (T7 mMessage mMachine, Ambion, Austin, Tex.) was mixed in a 1:1 ratio, and 1-10 ng of total RNA was injected into oocytes and studied 1-2 days later.
NMDA Receptor Electrophysiology Studies. […] Briefly, baseline perfusion solutions were the same as for GABAA with the substitution of equimolar BaCl2 for calcium salts and the addition of 0.1 mM EGTA; this constituted barium frog Ringer's solution (BaFR). Agonist solutions for NMDA studies also contained 0.1 mM glutamate (E) and 0.01 mM glycine (G) to constitute a BaFREG solution.
The syringe pump and perfusion chamber apparatus as well as the clamp holding potential and baseline-agonist exposure protocols were identical to that described for the GABAA studies. The same test compounds, concentrations, and preparative methods were used in NMDA voltage clamp studies as in the GABAA voltage clamp studies (Table 2).
Response Calculations and Data Analysis. Modulating drug responses were calculated as the percent of the control (baseline) peak as follows:
[formula] where ID and IB were the peak currents measured during agonist+drug and agonist baseline perfusions, respectively. When present, direct receptor activation by a drug was similarly calculated as a percent of the agonist response. […] A lack of receptor response (cut-off) was defined as a <10% change from baseline current that was statistically indistinguishable from zero using a two-tailed Student t-test.

[2] = biological target: GABAA (α1β2γ2s) receptors (UniProt P14867+P18508+P63138); assay: Oocyte two-electrode voltage clamp, GABAA receptor currents; conditions: for GABAA % Direct Effect: drug response without receptor agonist, percent of control agonist peak, saturated drug, mean ± SEM, 5-6 oocytes; for GABAA Drug Response: saturated drug + agonist
GABAA (α1β2γ2s) receptors, sequence (P14867 28-456): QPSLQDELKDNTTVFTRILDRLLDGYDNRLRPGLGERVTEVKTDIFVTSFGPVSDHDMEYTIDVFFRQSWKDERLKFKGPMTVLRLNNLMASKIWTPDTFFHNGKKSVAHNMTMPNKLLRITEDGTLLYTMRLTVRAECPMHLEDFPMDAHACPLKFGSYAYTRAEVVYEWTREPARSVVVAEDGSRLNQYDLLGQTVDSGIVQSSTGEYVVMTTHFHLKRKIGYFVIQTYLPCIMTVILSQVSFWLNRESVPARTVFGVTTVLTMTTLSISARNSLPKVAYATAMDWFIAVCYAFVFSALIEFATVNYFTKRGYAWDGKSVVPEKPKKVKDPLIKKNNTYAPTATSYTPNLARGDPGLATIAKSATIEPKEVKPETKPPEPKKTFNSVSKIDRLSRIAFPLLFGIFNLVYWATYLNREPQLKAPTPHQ
GABAA (α1β2γ2s) receptors, sequence (P63138 25-474 limits assumed): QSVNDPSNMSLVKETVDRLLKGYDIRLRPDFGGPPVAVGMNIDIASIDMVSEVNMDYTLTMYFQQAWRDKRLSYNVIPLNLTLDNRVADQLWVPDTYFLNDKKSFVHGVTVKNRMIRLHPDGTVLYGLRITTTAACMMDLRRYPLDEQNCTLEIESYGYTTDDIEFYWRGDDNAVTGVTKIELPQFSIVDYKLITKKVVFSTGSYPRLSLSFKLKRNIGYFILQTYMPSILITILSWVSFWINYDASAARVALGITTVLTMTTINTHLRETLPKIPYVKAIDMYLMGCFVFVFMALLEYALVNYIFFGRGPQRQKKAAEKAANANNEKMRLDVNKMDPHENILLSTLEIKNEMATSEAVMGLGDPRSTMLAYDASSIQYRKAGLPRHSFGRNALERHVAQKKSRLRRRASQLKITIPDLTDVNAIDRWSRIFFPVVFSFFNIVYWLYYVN
GABAA (α1β2γ2s) receptors, sequence (P18508 39-466): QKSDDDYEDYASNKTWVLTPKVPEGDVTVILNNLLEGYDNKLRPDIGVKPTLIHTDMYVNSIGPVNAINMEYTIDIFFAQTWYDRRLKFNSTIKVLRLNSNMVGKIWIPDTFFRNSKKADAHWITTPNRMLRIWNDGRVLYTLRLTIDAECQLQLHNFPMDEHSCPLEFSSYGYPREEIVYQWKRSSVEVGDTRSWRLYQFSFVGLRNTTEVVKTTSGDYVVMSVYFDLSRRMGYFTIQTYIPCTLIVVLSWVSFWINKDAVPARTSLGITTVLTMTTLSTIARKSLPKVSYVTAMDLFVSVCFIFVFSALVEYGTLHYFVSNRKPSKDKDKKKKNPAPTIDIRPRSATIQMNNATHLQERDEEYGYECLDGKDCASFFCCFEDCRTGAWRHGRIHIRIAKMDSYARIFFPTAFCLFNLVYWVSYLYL
Method: GABAA receptors were expressed using clones for the human GABAA α1 and the rat GABAA β2 and γ2s subunits in pCIS-II vectors. […] These plasmid ratios ensured incorporation of the γ-subunit into expressed receptors, as confirmed via receptor potentiation to 10 μM chlordiazepoxide or insensitivity to 10 μM zinc chloride during co-application with GABA. In separate oocytes, glutamate receptors were expressed using rat NMDA NR1 clones in a pCDNA3 vector and rat NMDA NR2A clones in a Bluescript vector. RNA encoding each subunit was prepared using a commercial transcription kit (T7 mMessage mMachine, Ambion, Austin, Tex.) was mixed in a 1:1 ratio, and 1-10 ng of total RNA was injected into oocytes and studied 1-2 days later.
Oocytes were studied in a 250 μL linear-flow perfusion chamber with solutions administered by syringe pump at 1.5 ml/min with gastight glass syringes and Teflon tubing. Oocyte GABAA currents were studied using standard two-electrode voltage clamping techniques at a holding potential of 80 mV using a 250 μL channel linear-flow perfusion chamber with solutions administered by syringe pump at 1.5 mL/min.
After FR perfusion for 5 min, oocytes were exposed to 30 sec FR-GABA followed by another 5 min FR washout; this was repeated until stable GABAA-elicited peaks were obtained. Next, FR containing a saturated solution of the study drug (Table 2)—or for gaseous study compounds a vapor pressure equal to 90% of barometric pressure with balance oxygen—was used to perfuse the oocyte chamber for 2 min followed by perfusion with a FR-GABA solution containing the identical drug concentration for 30 sec.
[formula] where ID and IB were the peak currents measured during agonist+drug and agonist baseline perfusions, respectively. When present, direct receptor activation by a drug was similarly calculated as a percent of the agonist response. Average current responses for each drug and channel were described by mean±SD. A lack of receptor response (cut-off) was defined as a <10% change from baseline current that was statistically indistinguishable from zero using a two-tailed Student t-test.

[3] = saturating aqueous concentration

NMDA % Direct Effect [1] | GABAA % Direct Effect [2] | Molecule | NMDA Drug Response [1] | GABAA Drug Response [2] | direct effect on NMDA receptors (in words) [1] | NMDA receptor modulation (in words) [1, 3] | GABAA receptor modulation (in words) [2, 3]
none | none | CCCCCCSCC [1-(ethylthio)-hexane] | – | + (potentiation (+) for drug+agonist responses greater than the control agonist peak) | – | – | –
none | none | CCCCCCCCSCC [1-(ethylthio)-octane] | 0 (no response (0) for drug+agonist responses that differ by <10% from the control agonist peak) | + (potentiation (+) for drug+agonist responses greater than the control agonist peak) | – | – | –
none | none | CCCCCCCCCCO [1-decanol] | – | + (potentiation (+) for drug+agonist responses greater than the control agonist peak) | – | – | –
none | none | CCCCCF [1-fluoropentane] | – | + (potentiation (+) for drug+agonist responses greater than the control agonist peak) | – | – | –
none | none | C#CCCCCC [1-heptyne] | – | + (potentiation (+) for drug+agonist responses greater than the control agonist peak) | – | – | –
none | – | CCCCCCS [1-hexanethiol] | 0 (no response (0) for drug+agonist responses that differ by <10% from the control agonist peak) | + (potentiation (+) for drug+agonist responses greater than the control agonist peak) | – | – | –
none | – | C#CCCCC [1-hexyne] | – | + (potentiation (+) for drug+agonist responses greater than the control agonist peak) | – | – | –
none | none | C#CCCCCCC [1-octyne] | 0 (no response (0) for drug+agonist responses that differ by <10% from the control agonist peak) | + (potentiation (+) for drug+agonist responses greater than the control agonist peak) | – | – | –
none | none | CCCCCCCCCCCO [1-undecanol] | 0 (no response (0) for drug+agonist responses that differ by <10% from the control agonist peak) | + (potentiation (+) for drug+agonist responses greater than the control agonist peak) | – | – | –
none | none | CCCCCCCCC(C)=O [2-decanone] | – | + (potentiation (+) for drug+agonist responses greater than the control agonist peak) | – | – | –
none | none | CCCCCCCCCCC(C)=O [2-dodecanone] | 0 (no response (0) for drug+agonist responses that differ by <10% from the control agonist peak) | + (potentiation (+) for drug+agonist responses greater than the control agonist peak) | – | – | –
none | none | CCCCCCCCCC=O [decanal] | 0 (no response (0) for drug+agonist responses that differ by <10% from the control agonist peak) | + (potentiation (+) for drug+agonist responses greater than the control agonist peak) | – | – | –
none | none | CCCCCCOCCCCCC [dihexylether] | 0 (no response (0) for drug+agonist responses that differ by <10% from the control agonist peak) | + (potentiation (+) for drug+agonist responses greater than the control agonist peak) | – | – | –
none | none | CCCCCOCCCCC [dipentylether] | 0 (no response (0) for drug+agonist responses that differ by <10% from the control agonist peak) | + (potentiation (+) for drug+agonist responses greater than the control agonist peak) | – | – | –

More lines, now with the values behind:

Molecule | NMDA % Direct Effect [1] | GABAA % Direct Effect [2] | NMDA Drug Response [1] | GABAA Drug Response [2] | direct effect on NMDA receptors (in words) [1] | NMDA receptor modulation (in words) [1, 3] | GABAA receptor modulation (in words) [2, 3]
CCc1cccc(CC)c1 [1,3-diethylbenzene] | none | none | 0 (no response (0) for drug+agonist responses that differ by <10% from the control agonist peak) | + (potentiation (+) for drug+agonist responses greater than the control agonist peak) | – | – | –
CCCCCCCCCCCCO [1-dodecanol] | none | none | 0 (no response (0) for drug+agonist responses that differ by <10% from the control agonist peak) | + (potentiation (+) for drug+agonist responses greater than the control agonist peak) | – | – | –
CCCCCCCCCCCCCCCCCCCCN [1-eicosanamine] | none | none | 0 (no response (0) for drug+agonist responses that differ by <10% from the control agonist peak) | + (potentiation (+) for drug+agonist responses greater than the control agonist peak) | – | – | –
CCCCCCCCF [1-fluoroctane] | none | none | 0 (no response (0) for drug+agonist responses that differ by <10% from the control agonist peak) | + (potentiation (+) for drug+agonist responses greater than the control agonist peak) | – | – | –
CCCCCCF [1-fluorohexane] | none | – | 0 (no response (0) for drug+agonist responses that differ by <10% from the control agonist peak) | + (potentiation (+) for drug+agonist responses greater than the control agonist peak) | – | – | –
C=CCCCC [1-hexene] | none | none | 0 (no response (0) for drug+agonist responses that differ by <10% from the control agonist peak) | + (potentiation (+) for drug+agonist responses greater than the control agonist peak) | – | – | –
CCCCCCCCCCCCCCCCCCN [1-octadecanamine] | none | none | – | + (potentiation (+) for drug+agonist responses greater than the control agonist peak) | – | – | –
C=CCCC [1-pentene] | none | 2 ± 3% | – | + (potentiation (+) for drug+agonist responses greater than the control agonist peak) | – | – | –
CCCCCCCCCC(C)=O [2-undecanone] | none | none | 0 (no response (0) for drug+agonist responses that differ by <10% from the control agonist peak) | + (potentiation (+) for drug+agonist responses greater than the control agonist peak) | – | – | –
CN1CCOCC1 [4-methylmorpholine] | – | – | – | – | direct activation of NMDA receptors | – | –
CCCC [butane] | none | none | – | + (potentiation (+) for drug+agonist responses greater than the control agonist peak) | – | negatively modulates NMDA receptors | positively modulate GABAA receptors
C1CCCCC1 [cyclohexane] | none | none | 0 (no response (0) for drug+agonist responses that differ by <10% from the control agonist peak) | + (potentiation (+) for drug+agonist responses greater than the control agonist peak) | – | – | –
C1CCCC1 [cyclopentane] | none | – | – | + (potentiation (+) for drug+agonist responses greater than the control agonist peak) | – | – | –
N-methylpiperadine | – | – | – | – | direct activation of NMDA receptors | – | –
